Laboratory results taken from patent publication US20130023485A1, “PARENTERAL FORMULATIONS OF PEPTIDES FOR THE TREATMENT OF SYSTEMATIC LUPUS ERYTHEMATOSUS” (Teva Pharmaceutical Industries, Ltd., priority 2003, published 2013).

Test system: (NZB×NZW)F1 female mice
Test: Lupus symptoms in SLE-prone (NZB×NZW)F1 female mice
Format: in vivo, mouse
Protocol: The same batch of drug substance was used in this study and in the first Phase I clinical trial with Compound 1. The mice were followed for anti-dsDNA antibodies and for proteinuria. When the mice were sacrificed, the intensity of ICD was determined in kidneys.

H-GYYWSWIRQPPGKGEEWIG-OH [Compound 1]
Mean Proteinuria ± SEM (25 μg/mouse s.c. once a week in Captisol®, 5 weeks following treatment initiation): 0.16 ± 0.05 g/L
Mean Proteinuria ± SEM (25 μg/mouse s.c. once a week in Captisol®, 7 weeks following treatment initiation): 1.26 ± 1.09 g/L
Mean Proteinuria ± SEM (25 μg/mouse s.c. once a week in Captisol®, 8 weeks following treatment initiation): 0.5 ± 0.31 g/L
Mean Proteinuria ± SEM (25 μg/mouse s.c. once a week in Captisol®, 10 weeks following treatment initiation): 0.56 ± 0.3 g/L
Mean Proteinuria ± SEM (50 μg/mouse s.c. once a week in Captisol®, 5 weeks following treatment initiation): 0.75 ± 0.3 g/L
Mean Proteinuria ± SEM (50 μg/mouse s.c. once a week in Captisol®, 7 weeks following treatment initiation): 0.81 ± 0.3 g/L
Mean Proteinuria ± SEM (50 μg/mouse s.c. once a week in Captisol®, 8 weeks following treatment initiation): 1.09 ± 0.4 g/L
Mean Proteinuria ± SEM (50 μg/mouse s.c. once a week in Captisol®, 10 weeks following treatment initiation): 1.29 ± 0.3 g/L
ICD (Immune Complex Deposits) intensity, Mean ± SEM (50 μg/mouse, kidneys at sacrifice, scale 0 = none, 1 = moderate, 2 = severe, 3 = severe/extremely intense): 1.90 ± 0.23
levels of dsDNA-specific antibodies versus control (25 or 50 μg/mouse, after 10 treatment injections): no significant differences
intensity of immune complex deposits in kidney sections versus control group (either dose level (25 or 50 μg/mouse), FIG. 6): much lower
